This note sets out measurements from patent publication US9328138B2 (priority 2011, dated 2016).

Structures are written as SMILES. Like-named read-outs stand apart in the source and are kept apart here.

Series [1] deals with T1, HCV genotype 1b (BK) NS3 modified enzyme with a R155K mutation (Hepatitis C virus genotype 1b, UniProt P26663, R1181K).
T1 construct: HCV genotype 1b (BK) NS3 modified enzyme
Put plainly: HCV NS3 protease time-resolved fluorescence (TRF) assay, genotype 1b R155K. The settings on record: Ki 1b R155K. Format: biochemical. In short, it runs like this:
(§1)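 Time-resolved fluorescence, ex 340/em 615 nm, 400 μs delay; IC50 by four-parameter fit. Enzyme preincubated with compound 10 min, then TRF substrate 25 nM final added and reaction run 6 h at RT. Buffer HEPES pH 7.5 with NaCl, glycerol, Triton X-100, DTT, PEG 8000.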

For series [2], the target named is HCV NS3 protease genotype 3a (3A-1) (Hepatitis C virus genotype 3a, UniProt Q81258). Put plainly: HCV NS3 protease time-resolved fluorescence (TRF) assay, genotype 3a. The format is biochemical. The note with it: Ki 3a. Put shortly: as §1
Where [3] appears, read: genotype 1b (BK) NS3 R155K, single value.

Take `CCOc1c2c(nc3ccccc13)O[C@@H]1C[C@@H](C(=O)OC)N(C1)C(=O)[C@H](C1CCCC1)NC(=O)O[C@@H]1CCC[C@H]1CCC=CC2`: the ring closure, yield of all isomers (from C=CCC[C@@H]1CCC[C@H]1OC(=O)N[C@H](C(=O)N1C[C@H](Oc2nc3ccccc3c(OCC)c2CC=C)C[C@H]1C(=O)OC)C1CCCC1, rcm bond, Zhan catalyst 1B, 1,2-dichloroethane, 6.79 mM, 25.0 °C, 4.0 h) is 79.2%.
In the case of `CCOC(=O)[C@@]12C[C@H]1/C=C\CCCCC[C@@H]1NC(=O)O[C@@H]3C[C@H]3CCC/C=C/c3c(nc4ccccc4c3OCCN3CCCCC3)O[C@@H]3C[C@@H](C(=O)N2)N(C3)C1=O`, the ring closure, yield of all isomers (from CCOC(=O)[C@@]12C[C@H]1/C=C\CCCCC[C@H](NC(=O)O[C@@H]1C[C@H]1CCC/C=C/B1OC(C)(C)C(C)(C)O1)C(=O)N1C[C@H](Oc3nc4ccccc4c(OCCN4CCCCC4)c3Br)C[C@H]1C(=O)N2, cc_pd bond, Pd(OAc)2/cataCXium A, Cs2CO3, dioxane, 36.6 mM, 100.0 °C, 1.0 h) was determined as 64.1%.
`C=C[C@@H]1C[C@]1(NC(=O)[C@@H]1C[C@@H]2CN1C(=O)[C@H](C(C)(C)C)NC(=O)O[C@@H]1C[C@H]1CCCCCc1c(nc3c(F)cccc3c1OCCN1CCCCC1)O2)C(=O)NS(=O)(=O)C1(C)CC1` [Example 213, (1aR,5S,8S,10R,22aR)-5-tent-butyl-N-[(1R,2S)-2-ethenyl-1-{[(1-methylcyclopropyl)sulfonyl]carbamoyl}cyclopropyl]-13-fluoro-3,6-dioxo-17-[2-(piperidin-1-yl)ethoxy]-1,1a,3,4,5,6,9,10,18,19,20,21,22,22a-tetradecahydro-8H-7,10-methanocyclopropa[18,19][1,10,3,6] dioxadiazacyclononadecino[11,12-b]quinoline-8-carboxamide]: the Ki (as a rule, a dissociation constant, usually derived from enzyme kinetics or from competition with a known ligand) in series [1] (setting [3]) worked out at 360 pM; in series [2], 3800 pM.
Taken in the same sequence, the figures for `C=C[C@@H]1C[C@]1(NC(=O)[C@@H]1C[C@@H]2CN1C(=O)[C@H](C1(C)CCCCC1)NC(=O)O[C@@H]1C[C@H]1CCCCCc1c(nc3ccccc3c1OCCN1CCOCC1)O2)C(=O)NS(=O)(=O)C1(C)CC1` [Example 123, (1aR,5S,8S,10R,22aR)-N-[(1R,2S)-2-ethenyl-1-{[(1-methylcyclopropyl)sulfonyl]carbamoyl}cyclopropyl]-5-(1-methylcyclohexyl)-17-[2-(morpholin-4-yl)ethoxy]-3,6-dioxo-1,1a,3,4,5,6,9,10,18,19,20,21,22,22a-tetradecahydro-8H-7,10-methanocyclopropa[18,19] [1,10,3,6]dioxadiazacyclononadecino [11,12-b]quinoline-8-carboxamide] were 490 pM and 6100 pM.
Take `C=C[C@@H]1C[C@]1(NC(=O)[C@@H]1C[C@@H]2CN1C(=O)[C@H](C1CCCC1)NC(=O)O[C@@H]1CCC[C@H]1CC/C=C/Cc1c(nc3ccccc3c1OCCCN)O2)C(=O)NS(=O)(=O)C1CC1` [Example 94, (3aR,7S,10S,12R,21E,24aS)-19-(3-aminopropoxy)-7-cyclopentyl-N-{(1R,2S)-1-[(cyclopropylsulfonyl)carbamoyl]-2-ethenylcyclopropyl}-5,8-dioxo-1,2,3,3a,5,6,7,8,11,12,20,23,24,24a-tetradecahydro-10H-9,12-methanocyclopenta[18,19][1,10,3,6]dioxadiazacyclononadecino[11,12-b]quinoline-10-carboxamide]: the Ki in series [1] (setting [3]) stood at 93 pM; in series [2], 590 pM.
Consider `C=C[C@@H]1C[C@]1(NC(=O)[C@@H]1C[C@@H]2CN1C(=O)[C@H](C(C)(C)C)NC(=O)O[C@@H]1CCC[C@H]1CC/C=C/Cc1c(nc3ccccc3c1OC)O2)C(=O)NS(=O)(=O)C1CC1` [Example 6, (3aR,7S,10S,12R,21E,24aS)-7-tert-butyl-N-{(1R,2S)-1-[(cyclopropylsulfonyl)carbamoyl]-2-ethenylcyclopropyl}-19-methoxy-5,8-dioxo-1,2,3,3a,5,6,7,8,11,12,20,23,24,24a-tetradecahydro-10H-9,12-methanocyclopenta[18,19][1,10,3,6] dioxadiazacyclononadecino[11,12-b]quinoline-10-carboxamide], for which the inhibition constant Ki in series [1] (setting [3]) came out at 100 pM; in series [2] it was 1300 pM.
In the case of `C=C[C@@H]1C[C@]1(NC(=O)[C@@H]1C[C@@H]2CN1C(=O)[C@H](C(C)(C)C)NC(=O)O[C@@H]1C[C@H]1CCCCCc1c(nc3ccccc3c1OCCCN(CCOC)CCOC)O2)C(=O)NS(=O)(=O)C1(C)CC1` [Example 186, (1aR,5S,8S,10R,22aR)-17-{3-[bis(2-methoxyethyl)amino]propoxy}-5-tert-butyl-N-[(1R,2S)-2-ethenyl-1-{[(1-methylcyclopropyl)sulfonyl]carbamoyl}cyclopropyl]-3,6-dioxo-1,1a,3,4,5,6,9,10, 18,19,20,21,22,22a-tetradecahydro-8H-7,10-methanocyclopropa[18,19][1,10,3,6] dioxadiazacyclononadecino[11,12-b] quinoline-8-carboxamide], the Ki is 78 pM in series [1] (setting [3]) and 1900 pM in series [2].
For the molecule `C=C[C@@H]1C[C@]1(NC(=O)[C@@H]1C[C@@H]2CN1C(=O)[C@H](C(C)(C)C)NC(=O)O[C@@H]1C[C@H]1CCCCCc1c(nc3ccccc3c1OCCCNCCc1cccc3ccccc13)O2)C(=O)NS(=O)(=O)C1(C)CC1` [Example 189, (1aR,5S,8S,10R,22aR)-5-tert-butyl-N-[(1R,2S)-2-ethenyl-1-{[(1-methylcyclopropyl)sulfonyl]carbamoyl}cyclopropyl]-17-(3-{[2-(naphthalen-1-yl)ethyl]amino}propoxy)-3,6-dioxo-1,1a,3,4,5,6,9,10,18,19,20, 21,22,22a-tetradecahydro-8H-7,10-methanocyclopropa[18,19][1,10,3,6] dioxadiazacyclononadecino[11,12-b] quinoline-8-carboxamide], the Ki was found to be 81 pM in series [1] (setting [3]) and 3400 pM in series [2].
Take `C=C[C@@H]1C[C@]1(NC(=O)[C@@H]1C[C@@H]2CN1C(=O)[C@H](C1(C)CCCCC1)NC(=O)O[C@@H]1C[C@H]1CCCCCc1c(nc3ccccc3c1OCCCN1CCCOCC1)O2)C(=O)NS(=O)(=O)C1(C)CC1` [Example 270, (1aR,5S,8S,10R,22aR)—N-[(1R,2S)-2-ethenyl-1-{[(1-methylcyclopropyl)sulfonyl]carbamoyl}cyclopropyl]-5-(1-methylcyclohexyl)-17-[3-(1,4-oxazepan-4-yl)propoxy]-3,6-dioxo-1,1a,3,4,5,6,9,10,18,19,20,21,22,22a-tetradecahydro-8H-7,10-methanocyclopropa[18,19][1,10,3,6]dioxadiazacyclononadecino[11,12-b]quinoline-8-carboxamide]: the Ki in series [1] (first of two values printed in the cell (not explained)) is 21 pM; in series [1] (second of two values printed in the cell (not explained)), 180 pM; in series [2], 1400 pM.
Take `C=C[C@@H]1C[C@]1(NC(=O)[C@@H]1C[C@@H]2CN1C(=O)[C@H](C(C)(C)C)NC(=O)O[C@@H]1CCC[C@H]1CC/C=C/Cc1c(nc3ccccc3c1OCCCO)O2)C(=O)NS(=O)(=O)C1CC1` [Example 70, (3aR,7S,10S,12R,21E,24aS)-7-tert-butyl-N-{(1R,2S)-1-[(cyclopropylsulfonyl)carbamoyl]-2-ethenylcyclopropyl}-19-(3-hydroxypropoxy)-5,8-dioxo-1,2,3,3a,5,6,7,8,11,12,20,23,24,24a-tetradecahydro-10H-9,12-methanocyclopenta[18,19][1,10,3,6]dioxadiazacyclononadecino[11,12-b]quinoline-10-carboxamide]: the inhibition constant Ki in series [1] (setting [3]) came out at 66 pM; in series [2], 590 pM.
Take `C=C[C@@H]1C[C@]1(NC(=O)[C@@H]1C[C@@H]2CN1C(=O)[C@H](C(C)(C)C)NC(=O)O[C@@H]1CCC[C@H]1CC/C=C/Cc1c(nc3ccccc3c1OCCCN1CCCC1=O)O2)C(=O)NS(=O)(=O)C1(C)CC1` [Example 89, (3aR,7S,10S,12R,21E,24aS)-7-tert-butyl-N-[(1R,2S)-2-ethenyl-1-{[(1-methycyclopropyl)sulfonyl]carbamoyl}cyclopropyl]-5,8-dioxo-19-[3-(2-oxopyrrolidin-1-yl)propoxy]-1,2,3,3a,5,6,7,8,11,12,20,23,24,24a-tetradecahydro-10H-9,12-methano-cyclopenta[18,19][1,10,3,6]dioxa diazacyclononadecino[11,12-b] quinoline-10-carboxamide]: the values for the Ki in series [1] (setting [3]) and in series [2] were 70 pM and 320 pM, respectively.
With `C=C[C@@H]1C[C@]1(NC(=O)[C@@H]1C[C@@H]2CN1C(=O)[C@H](C(C)(C)C)NC(=O)O[C@@H]1C[C@H]1CCCCCc1c(nc3ccccc3c1OCC1CN(CC)CCO1)O2)C(=O)NS(=O)(=O)C1(C)CC1` (stereo partly drawn) [Example 226, (1aR,5S,8S,10R,22aR)-5-tert-butyl-N-[(1R,2S)-2-ethenyl-1-{[(1-methylcyclopropyl)sulfonyl]carbamoyl}cyclopropyl]-17-[(4-ethylmorpholin-2-yl)methoxy]-3,6-dioxo-1,1a,3,4,5,6,9,10,18,19,20,21,22,22a-tetradecahydro-8H-7,10-methanocyclopropa[18,19][1,10,3,6] dioxadiazacyclononadecino[11,12-b]quinoline-8-carboxamide], the Ki in series [1] (setting [3]) stood at 110 pM; in series [2], 1600 pM.
The corresponding values for `C=C[C@@H]1C[C@]1(NC(=O)[C@@H]1C[C@@H]2CN1C(=O)[C@H](C(C)(C)C)NC(=O)O[C@@H]1C[C@H]1CCCCCc1c(nc3ccccc3c1O)O2)C(=O)NS(=O)(=O)C1(C)CC1` [Example 120, (1aR,5S,8S,10R,22aR)-5-tert-butyl-N-[(1R,2S)-2-ethenyl-1-{[(1-methylcyclopropyl)sulfonyl]carbamoyl}cyclopropyl]-17-hydroxy-3,6-dioxo-1,1a,3,4,5,6,9,10,18, 19,20,212,22,22a-tetradeca hydro-8H-7,10-methanocyclopropa [18,19][1,10,3,6]dioxadiazacyclo-nonadecino [11,12-b]quinoline-8-carboxamide] are 62 pM and 1100 pM.
